The results in this text go back to patent publication US8716303B2, “N-(hetero)aryl-pyrrolidine derivatives of pyrazol-4-yl-pyrrolo[2,3-d]pyrimidines and pyrrol-3-yl-pyrrolo[2,3-d]pyrimidines as janus kinase inhibitors” (Incyte Corporation, priority 2009, dated 2014).

Each structure is given as a SMILES string. pIC50: −log10 of the molar value. Structures can show the parent of a compound that is named as a salt. Some results are limits rather than exact numbers.

Test [1] concerns the target T1, Jak2 (a.a. 828-1132) (Homo sapiens, UniProt O60674).
T1 construct: Jak2 (a.a. 828-1132); His tag (N); made in house; host or cells: insect cells (baculovirus)
Nature of the test: In vitro JAK kinase assay (HTRF, phosphorylation of a biotinylated peptide), JAK2, reported as JAK2/JAK1 ratio. The format is biochemical. The method, then:
(§1) Compounds herein were tested for inhibitory activity of JAK targets according to the following in vitro assay described in Park et al., Analytical Biochemistry 1999, 269, 94-104. The catalytic domains of human JAK1 (a.a. 837-1142), Jak2 (a.a. 828-1132) and Jak3 (a.a. 781-1124) with an N-terminal His tag were expressed using baculovirus in insect cells and purified. The catalytic activity of JAK1, JAK2 or JAK3 was assayed by measuring the phosphorylation of a biotinylated peptide. The phosphorylated peptide was detected by homogenous time resolved fluorescence (HTRF). IC50s of compounds were measured for each kinase in the 40 microL reactions that contain the enzyme, ATP and 500 nM peptide in 50 mM Tris (pH 7.8) buffer with 100 mM NaCl, 5 mM DTT, and 0.1 mg/mL (0.01%) BSA. The ATP concentration in the reactions was 90 μM for Jak1, 30 μM for Jak2 and 3 μM for Jak3 for Km conditions. For the 1 mM IC50 measurements, ATP concentration in the reactions was 1 mM. Reactions were carried out at RT for 1 h and then stopped with 20 μL 45 mM EDTA, 300 nM SA-APC, 6 nM Eu-Py20 in assay buffer (Perkin Elmer, Boston, Mass.). Binding to the Europium labeled antibody took place for 40 min and HTRF signal was measured on a Fusion plate reader (Perkin Elmer, Boston, Mass.).
(§2) Compounds herein were tested for inhibitory activity of JAK1 and JAK2 targets according to the assay of Example A (experiments run at Km or 1 mM as indicated). The symbol “+” indicates an IC50<50 nM; the symbol “++” indicates an IC50≧50 and ≦100 nM; and the symbol “+++” indicates an IC50>100 and ≦500 nM.

The target in test [2] is T2, human JAK1 (a.a. 837-1142) (Homo sapiens, UniProt P23458).
T2 construct: human JAK1 (a.a. 837-1142); His tag (N); made in house; host or cells: insect cells (baculovirus)
T2 sequence (P23458 849-1154): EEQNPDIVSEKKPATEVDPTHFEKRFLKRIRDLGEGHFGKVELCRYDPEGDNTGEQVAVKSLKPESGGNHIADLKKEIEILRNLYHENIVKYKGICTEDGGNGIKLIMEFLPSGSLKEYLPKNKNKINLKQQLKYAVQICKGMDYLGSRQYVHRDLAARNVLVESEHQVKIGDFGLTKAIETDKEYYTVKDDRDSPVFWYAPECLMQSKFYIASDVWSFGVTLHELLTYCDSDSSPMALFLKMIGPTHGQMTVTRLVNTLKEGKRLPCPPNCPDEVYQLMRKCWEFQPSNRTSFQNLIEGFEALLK
Nature of the test: In vitro JAK kinase assay (HTRF, phosphorylation of a biotinylated peptide), JAK1. The format is biochemical. The procedure: as §1, §2
On the technique in general: TR-FRET usually uses a lanthanide donor and a delayed reading to cut background.

[3] abbreviates: Assay Conditions Km (ATP 90 μM for Jak1, 30 μM for Jak2).
The mark [4] stands for this setting: Assay Conditions Km (ATP 90 μM for Jak1).

T1 sequence (O60674 828-1132): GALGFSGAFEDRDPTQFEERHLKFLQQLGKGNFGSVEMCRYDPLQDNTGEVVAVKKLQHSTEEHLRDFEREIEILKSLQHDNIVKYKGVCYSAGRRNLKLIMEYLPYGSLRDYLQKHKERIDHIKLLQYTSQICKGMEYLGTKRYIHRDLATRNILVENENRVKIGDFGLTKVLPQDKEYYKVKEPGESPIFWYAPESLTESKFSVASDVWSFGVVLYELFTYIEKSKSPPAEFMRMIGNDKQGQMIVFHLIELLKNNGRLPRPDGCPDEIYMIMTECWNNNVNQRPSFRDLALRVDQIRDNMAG

A word on the pIC50: it is −log10 of the IC50, conventionally taken in molar units. With `Cn1cc(Cl)nc(N2CCC(C(CC#N)n3cc(-c4ncnc5[nH]ccc45)cn3)C2)c1=O` (racemic) [Example 36, ±3-[1-(6-chloro-4-methyl-3-oxo-3,4-dihydropyrazin-2-yl)pyrrolidin-3-yl]-3-[4-(7H-pyrrolo[2,3-d]pyrimidin-4-yl)-1H-pyrazol-1-yl]propanenitrile trifluoroacetate], in test [1] (Assay Conditions 1 mM ATP), the “JAK2/JAK1 IC50 ratio” value is listed as 6. In test [2] (Assay Conditions 1 mM ATP), the negative-log IC50 (pIC50) was 7.00 to 7.30.

For `Cn1ccnc(N2CCC(C(CC#N)n3cc(-c4ncnc5[nH]ccc45)cn3)C2)c1=O` (racemic) [Example 37, ±3-[1-(4-methyl-3-oxo-3,4-dihydropyrazin-2-yl)pyrrolidin-3-yl]-3-[4-(7H-pyrrolo[2,3-d]pyrimidin-4-yl)-1H-pyrazol-1-yl]propanenitrile trifluoroacetate], the “JAK2/JAK1 IC50 ratio” value in test [1] (Assay Conditions 1 mM ATP) is listed as more than 8.7. Besides, in test [2] (Assay Conditions 1 mM ATP), the pIC50 was more than 7.30.

Take `N#CCC(C1CCN(c2nccc(C#N)c2Cl)C1)n1cc(-c2ncnc3[nH]ccc23)cn1` (racemic) [Example 38, ±3-chloro-2-(3-{2-cyano-1-[4-(7H-pyrrolo[2,3-d]pyrimidin-4-yl)-1H-pyrazol-1-yl]ethyl}pyrrolidin-1-yl)isonicotinonitrile trifluoroacetate]: the “JAK2/JAK1 IC50 ratio” value in test [1] (Assay Conditions 1 mM ATP) is on record as 3.3. The negative logarithm of the IC50 (pIC50) in test [2] (Assay Conditions 1 mM ATP) was 7.00 to 7.30.

`N#CCC(C1CCN(c2nccc(C#N)c2C#N)C1)n1cc(-c2ncnc3[nH]ccc23)cn1` (racemic) [Example 39, ±2-(3-{2-cyano-1-[4-(7H-pyrrolo[2,3-d]pyrimidin-4-yl)-1H-pyrazol-1-yl]ethyl}pyrrolidin-1-yl)pyridine-3,4-dicarbonitrile trifluoroacetate]: the “JAK2/JAK1 IC50 ratio” value in test [1] (Assay Conditions 1 mM ATP) is on record as 15.5. This compound gave a negative-log IC50 (pIC50) in test [2] (Assay Conditions 1 mM ATP) of more than 7.30.

With `CSc1cccc(N2CCC(C(CC#N)n3cc(-c4ncnc5[nH]ccc45)cn3)C2)c1C#N` (racemic) [Example 40, ±2-(3-{2-cyano-1-[4-(7H-pyrrolo[2,3-d]pyrimidin-4-yl)-1H-pyrazol-1-yl]ethyl}pyrrolidin-1-yl)-6-(methylthio)benzonitrile], in test [1] (Assay Conditions 1 mM ATP), the “JAK2/JAK1 IC50 ratio” value was 7.1. This compound gave a pIC50 in test [2] (Assay Conditions 1 mM ATP) of more than 7.30.

For `CS(=O)(=O)c1cccc(N2CCC(C(CC#N)n3cc(-c4ncnc5[nH]ccc45)cn3)C2)c1C#N` (racemic) [Example 41, ±2-(3-{2-cyano-1-[4-(7H-pyrrolo[2,3-d]pyrimidin-4-yl)-1H-pyrazol-1-yl]ethyl}pyrrolidin-1-yl)-6-(methylsulfonyl)benzonitrile], the “JAK2/JAK1 IC50 ratio” value in test [1] (Assay Conditions 1 mM ATP) stood at 11. This compound also gave a negative logarithm of the IC50 (pIC50) in test [2] (Assay Conditions 1 mM ATP) of more than 7.30.

With `N#CCC(C1CCN(c2ccc3cccc(Cl)c3n2)C1)n1cc(-c2ncnc3[nH]ccc23)cn1` (racemic) [Example 42, ±3-[1-(8-chloroquinolin-2-yl)pyrrolidin-3-yl]-3-[4-(7H-pyrrolo[2,3-d]pyrimidin-4-yl)-1H-pyrazol-1-yl]propanenitrile], the “JAK2/JAK1 IC50 ratio” value in test [1] (setting [3]) came out at 6.0. The negative logarithm of the IC50 (pIC50) in test [2] (setting [4]) was more than 7.30.

In the case of `CCS(=O)(=O)c1cc(N2CCC(C(CC#N)n3ccc(-c4ncnc5[nH]ccc45)c3)C2)ccn1` (racemic) [Example 148-rac, 3-{1-[2-(ethylsulfonyl)pyridin-4-yl]pyrrolidin-3-yl}-3-[3-(7H-pyrrolo[2,3-d]pyrimidin-4-yl)-1H-pyrrol-1-yl]propanenitrile], in test [1] (Assay Conditions 1 mM ATP), the “JAK2/JAK1 IC50 ratio” value came to 4.0. In addition, the pIC50 in test [2] (Assay Conditions 1 mM ATP) was more than 7.30.

Regarding `N#CCC(C1CCN(c2scnc2C#N)C1)n1ccc(-c2ncnc3[nH]ccc23)c1` (racemic) [Example 149-1, 5-(3-{2-cyano-1-[3-(7H-pyrrolo[2,3-d]pyrimidin-4-yl)-1H-pyrrol-1-yl]ethyl}pyrrolidin-1-yl)-1,3-thiazole-4-carbonitrile], in test [1] (Assay Conditions 1 mM ATP), the “JAK2/JAK1 IC50 ratio” value is given as 9.9. Moreover, in test [2] (Assay Conditions 1 mM ATP), the pIC50 is more than 7.30.

As for `N#CCC(C1CCN(c2scnc2C#N)C1)n1ccc(-c2ncnc3[nH]ccc23)c1` (racemic) [Example 149-2, 5-(3-{2-cyano-1-[3-(7H-pyrrolo[2,3-d]pyrimidin-4-yl)-1H-pyrrol-1-yl]ethyl}pyrrolidin-1-yl)-1,3-thiazole-4-carbonitrile], the “JAK2/JAK1 IC50 ratio” value in test [1] (Assay Conditions 1 mM ATP) came out at 4.5. Moreover, in test [2] (Assay Conditions 1 mM ATP), the pIC50 is more than 7.30.

With `N#CCC(C1CCN(c2scnc2C#N)C1)n1ccc(-c2ncnc3[nH]ccc23)c1` (racemic) [Example 149-rac, 5-(3-{2-cyano-1-[3-(7H-pyrrolo[2,3-d]pyrimidin-4-yl)-1H-pyrrol-1-yl]ethyl}pyrrolidin-1-yl)-1,3-thiazole-4-carbonitrile], in test [1] (Assay Conditions 1 mM ATP), the “JAK2/JAK1 IC50 ratio” value was 14.5. Also, in test [2] (Assay Conditions 1 mM ATP), the negative-log IC50 (pIC50) was more than 7.30.

Consider `N#CCC(C1CCN(c2ncc3ccoc3c2C#N)C1)n1ccc(-c2ncnc3[nH]ccc23)c1` (racemic) [Example 170-rac, 6-(3-{2-cyano-1-[3-(7H-pyrrolo[2,3-d]pyrimidin-4-yl)-1H-pyrrol-1-yl]ethyl}pyrrolidin-1-yl)furo[3,2-c]pyridine-7-carbonitrile], for which the “JAK2/JAK1 IC50 ratio” value in test [1] (Assay Conditions 1 mM ATP) is reported as 4.5. For the same compound, the negative logarithm of the IC50 (pIC50) in test [2] (Assay Conditions 1 mM ATP) was more than 7.30.

Regarding `N#CCC(C1CCN(c2ncc3c(c2C#N)S(=O)(=O)CC3)C1)n1ccc(-c2ncnc3[nH]ccc23)c1` (racemic) [Example 171-rac, 6-(3-{2-cyano-1-[3-(7H-pyrrolo[2,3-d]pyrimidin-4-yl)-1H-pyrrol-1-yl]ethyl}pyrrolidin-1-yl)-2,3-dihydrothieno[3,2-c]pyridine-7-carbonitrile 1,1-dioxide], in test [1] (Assay Conditions 1 mM ATP), the “JAK2/JAK1 IC50 ratio” value worked out at 21.9. For the same compound, the pIC50 in test [2] (Assay Conditions 1 mM ATP) was more than 7.30.

In the case of `N#CCC(C1CCN(c2ncc3ccsc3c2C#N)C1)n1ccc(-c2ncnc3[nH]ccc23)c1` (racemic) [Example 176-rac, 6-(3-{2-cyano-1-[3-(7H-pyrrolo[2,3-d]pyrimidin-4-yl)-1H-pyrrol-1-yl]ethyl}pyrrolidin-1-yl)thieno[3,2-c]pyridine-7-carbonitrile], the “JAK2/JAK1 IC50 ratio” value in test [1] (Assay Conditions 1 mM ATP) is 53.3. The negative logarithm of the IC50 (pIC50) in test [2] (Assay Conditions 1 mM ATP) was more than 7.30.

As for `N#CCC(C1CCN(c2cncc(Cl)n2)C1)n1cc(-c2ncnc3[nH]ccc23)cn1` (single isomer, unassigned) [1 (rac)], the “JAK2/JAK1 IC50 ratio” value in test [1] (setting [3]) is reported as 3. Besides, in test [2] (setting [4]), the negative logarithm of the IC50 (pIC50) is more than 7.30.

Consider `N#CCC(C1CCN(c2cccc(Cl)n2)C1)n1cc(-c2ncnc3[nH]ccc23)cn1` (single isomer, unassigned) [2, Step 2a], for which the “JAK2/JAK1 IC50 ratio” value in test [1] (setting [3]) came out at 7.3. The pIC50 in test [2] (setting [4]) is more than 7.30.

For `N#CCC(C1CCN(c2cccc(Cl)n2)C1)n1cc(-c2ncnc3[nH]ccc23)cn1` (single isomer, unassigned) [2, Step 2b], the “JAK2/JAK1 IC50 ratio” value in test [1] (setting [3]) is reported as 3.7. In test [2] (setting [4]), the negative logarithm of the IC50 (pIC50) was more than 7.30.

For `N#CCC(C1CCN(c2ccnc(Cl)n2)C1)n1cc(-c2ncnc3[nH]ccc23)cn1` (single isomer, unassigned) [3, Step 2a], the “JAK2/JAK1 IC50 ratio” value in test [1] (setting [3]) is 2.3. The same compound showed a negative-log IC50 (pIC50) in test [2] (setting [4]) of more than 7.30.

Take `N#CCC(C1CCN(c2ccnc(Cl)n2)C1)n1cc(-c2ncnc3[nH]ccc23)cn1` (single isomer, unassigned) [3, Step 2b]: the “JAK2/JAK1 IC50 ratio” value in test [1] (setting [3]) is given as 8.5. The pIC50 in test [2] (setting [4]) is more than 7.30.

In the case of `N#CCC(C1CCN(c2nc3ccccc3o2)C1)n1cc(-c2ncnc3[nH]ccc23)cn1` (single isomer, unassigned) [9, Step 3a], the “JAK2/JAK1 IC50 ratio” value in test [1] (setting [3]) came to 1.9. The negative logarithm of the IC50 (pIC50) in test [2] (setting [4]) was more than 7.30.

Turning to `N#CCC(C1CCN(c2nc3ccccc3o2)C1)n1cc(-c2ncnc3[nH]ccc23)cn1` (single isomer, unassigned) [9, Step 3b], in test [1] (setting [3]), the “JAK2/JAK1 IC50 ratio” value is on record as 6.3. In test [2] (setting [4]), the pIC50 is more than 7.30.

As to `N#CCC(n1cc(-c2ncnc3[nH]ccc23)cn1)C1(F)CCN(c2nc3cccnc3o2)C1` (single isomer, unassigned) [31, Step 4a, enantiomer 1], the “JAK2/JAK1 IC50 ratio” value in test [1] (Assay Conditions 1 mM ATP) is listed as 5.6. For the same compound, the negative-log IC50 (pIC50) in test [2] (Assay Conditions 1 mM ATP) is 7.00 to 7.30.

As to `N#CCC(n1cc(-c2ncnc3[nH]ccc23)cn1)C1(F)CCN(c2nc3cccnc3o2)C1` (single isomer, unassigned) [31, Step 4a, enantiomer 2], the “JAK2/JAK1 IC50 ratio” value in test [1] (Assay Conditions 1 mM ATP) was determined as 5.1. Further, the pIC50 in test [2] (Assay Conditions 1 mM ATP) is 7.00 to 7.30.

In turn, `N#CC[C@@H]([C@H]1CCN(c2nc(Cl)c(F)cc2NC=O)C1)n1cc(-c2ncnc3[nH]ccc23)cn1` [Example 92, N-(2-((S)-3-((S)-1-(4-(7H-pyrrolo[2,3-d]pyrimidin-4-yl)-1H-pyrazol-1-yl)-2-cyanoethyl)pyrrolidin-1-yl)-6-chloro-5-fluoropyridin-3-yl)formamide trifluoroacetate] showed a negative logarithm of the IC50 (pIC50) in test [2] (Assay Conditions 1 mM ATP) of more than 7.30.

As to `N#CC[C@@H]([C@H]1CCN(c2ncc(CC(F)F)nc2C#N)C1)n1cc(-c2ncnc3[nH]ccc23)cn1` [Example 139, 3-((3S)-3-{(1S)-2-cyano-1-[4-(7H-pyrrolo[2,3-d]pyrimidin-4-yl)-1H-pyrazol-1-yl]ethyl}pyrrolidin-1-yl)-6-(2,2-difluoroethyl)pyrazine-2-carbonitrile trifluoroacetate], the pIC50 in test [2] (Assay Conditions 1 mM ATP) is more than 7.30.
